{
  "source": "paper PMC3723632",
  "about": "“A Multi-targeted Drug Candidate with Dual Anti-HIV and Anti-HSV Activity” (PLoS Pathogens, 2013)",
  "key": {"HIV-1 RT": {"target": "T1, HIV-1 RT (Human immunodeficiency virus type 1 group M subtype B, UniProt P03366)", "T1 construct": "4 µl of recombinant HIV-1 RT", "test": "HIV-1 reverse transcriptase assay", "format": "biochemical", "settings": "poly rU.dA primer/template", "experimental": "[…] In the HSV DNA polymerase assays, the inhibitory effect of adefovir-pp or PMEA-DAPym-pp on herpesvirus DNA polymerase-catalyzed polymerization was also determined in the presence of radiolabeled [^3H]dGTP (1 mCi/ml; 2.8 µM), [^3H]dTTP (1 mCi/ml; 1 µM), or [^3H]dCTP (1 mCi/ml; 2.5 µM) as competing dNTP in the presence of 0.8 µl (5 mM) of the other dNTPs in the reaction mixture as described above. The reaction was started by the addition of 4 µl of recombinant HSV-1 DNA polymerase (kindly provided by M.W. Wathen, at that time at Pfizer, Kalamazoo, MI) or 4 µl of recombinant HIV-1 RT (in 20 mM Tris.HCl, pH 8.0; 1 mM DTT; 0.1 mM EDTA; 0.2 M NaCl; 40% glycerol), and the reaction mixture was incubated for 60 min (HSV-1 DNA polymerase) or 30 min (HIV-1 RT) at 37°C. Then, 1 ml of ice-cold 5% TCA in 0.02 M Na4P2O7.10 H2O was added to terminate the polymerisation reaction, after which the acid-insoluble precipitate (radiolabeled DNA) was captured onto Whatman glass fiber filters (type GF/C; GE Healthcare UK Limited, Buckinghamshire, UK) and further washed with 5% TCA and ethanol to remove free radiolabeled dNTP. Radioactivity was determined in a Perkin Elmer Tri-Carb 2810 TR liquid scintillation counter."}, "HSV DNA polymerase": {"target": "T2, HSV DNA polymerase (Human herpesvirus 1, UniProt P04293)", "T2 construct": "gift of M.W. Wathen (Pfizer, Kalamazoo, MI)", "T2 sequence (P04293 whole entry)": "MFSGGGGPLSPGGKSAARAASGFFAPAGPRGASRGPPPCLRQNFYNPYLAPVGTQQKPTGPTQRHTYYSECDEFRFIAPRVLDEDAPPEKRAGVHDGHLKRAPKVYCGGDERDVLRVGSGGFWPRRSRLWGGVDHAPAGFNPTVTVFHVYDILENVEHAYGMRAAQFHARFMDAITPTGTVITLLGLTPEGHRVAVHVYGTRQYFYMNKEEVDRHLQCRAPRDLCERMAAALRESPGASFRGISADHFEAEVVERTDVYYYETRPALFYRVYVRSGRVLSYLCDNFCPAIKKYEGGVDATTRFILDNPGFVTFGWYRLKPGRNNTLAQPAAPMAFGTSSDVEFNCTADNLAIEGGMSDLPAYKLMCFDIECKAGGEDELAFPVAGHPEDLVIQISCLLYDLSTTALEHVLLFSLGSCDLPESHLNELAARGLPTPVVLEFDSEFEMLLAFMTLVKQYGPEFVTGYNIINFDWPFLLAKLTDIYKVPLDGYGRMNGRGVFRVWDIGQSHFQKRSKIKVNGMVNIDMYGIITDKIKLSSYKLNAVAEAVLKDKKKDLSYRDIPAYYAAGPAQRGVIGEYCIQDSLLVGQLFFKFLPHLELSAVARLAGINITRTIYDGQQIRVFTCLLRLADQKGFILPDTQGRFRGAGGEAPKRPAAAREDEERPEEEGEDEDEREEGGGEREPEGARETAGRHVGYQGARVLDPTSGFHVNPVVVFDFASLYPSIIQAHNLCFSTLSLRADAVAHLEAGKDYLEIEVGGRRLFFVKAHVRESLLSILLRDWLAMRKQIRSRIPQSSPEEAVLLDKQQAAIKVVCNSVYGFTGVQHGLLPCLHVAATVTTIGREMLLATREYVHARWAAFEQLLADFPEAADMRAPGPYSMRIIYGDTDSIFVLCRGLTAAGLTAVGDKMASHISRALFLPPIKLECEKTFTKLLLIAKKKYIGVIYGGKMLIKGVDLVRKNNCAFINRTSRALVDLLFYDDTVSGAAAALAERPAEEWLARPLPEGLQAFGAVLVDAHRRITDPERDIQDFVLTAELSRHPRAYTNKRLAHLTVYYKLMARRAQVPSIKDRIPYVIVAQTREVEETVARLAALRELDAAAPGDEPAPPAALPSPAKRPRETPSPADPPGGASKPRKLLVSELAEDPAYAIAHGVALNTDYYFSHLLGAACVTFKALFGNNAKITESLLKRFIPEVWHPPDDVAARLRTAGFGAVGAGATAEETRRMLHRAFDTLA", "test": "HSV DNA polymerase assay", "format": "biochemical", "experimental": "The reaction mixture (40 µl) for the HSV-1 DNA polymerase and HIV-1 RT assays contained 4 µl of Premix (200 mM Tris.HCl, pH 7.5; 2 mM DTT; 30 mM MgCl2), 4 µl of BSA (5 mg/ml), 1.6 µl of activated calf thymus DNA (1.25 mg/ml), 0.8 µl of dCTP (5 mM), 0.8 µl of dTTP (5 mM), 0.8 µl of dGTP (5 mM), 2 µl of radiolabeled [^3H]dATP (1 mCi/ml) (3.2 µM), 18 µl of H2O, and 4 µl of adefovir-pp or PMEO-DAPym-pp at different concentrations (i.e., 200, 20, 2, and 0.2 µM). In the HSV DNA polymerase assays, the inhibitory effect of adefovir-pp or PMEA-DAPym-pp on herpesvirus DNA polymerase-catalyzed polymerization was also determined in the presence of radiolabeled [^3H]dGTP (1 mCi/ml; 2.8 µM), [^3H]dTTP (1 mCi/ml; 1 µM), or [^3H]dCTP (1 mCi/ml; 2.5 µM) as competing dNTP in the presence of 0.8 µl (5 mM) of the other dNTPs in the reaction mixture as described above. The reaction was started by the addition of 4 µl of recombinant HSV-1 DNA polymerase (kindly provided by M.W. Wathen, at that time at Pfizer, Kalamazoo, MI) or 4 µl of recombinant HIV-1 RT (in 20 mM Tris.HCl, pH 8.0; 1 mM DTT; 0.1 mM EDTA; 0.2 M NaCl; 40% glycerol), and the reaction mixture was incubated for 60 min (HSV-1 DNA polymerase) or 30 min (HIV-1 RT) at 37°C. Then, 1 ml of ice-cold 5% TCA in 0.02 M Na4P2O7.10 H2O was added to terminate the polymerisation reaction, after which the acid-insoluble precipitate (radiolabeled DNA) was captured onto Whatman glass fiber filters (type GF/C; GE Healthcare UK Limited, Buckinghamshire, UK) and further washed with 5% TCA and ethanol to remove free radiolabeled dNTP. Radioactivity was determined in a Perkin Elmer Tri-Carb 2810 TR liquid scintillation counter."}},
  "note": "Read-outs that look alike come from different tables or passages of the source.",
  "data": [
    {"compound": "Nc1ncnc2c1ncn2CCOCP(=O)(O)OP(=O)(O)OP(=O)(O)O", "note": "[Adefovir-pp]", "values": [
      {"measurement": "IC50", "setting": "HIV-1 RT; IC50, dATP (3.2 µM) as competing substrate", "result": 0.923, "unit": "µM"},
      {"measurement": "IC50", "setting": "HSV DNA polymerase; [3H]dATP as competing substrate, gapped calf thymus DNA, read-out: IC50 (converted)", "result": 0.993, "unit": "µM"},
      {"measurement": "IC50", "setting": "HSV DNA polymerase; [3H]dCTP as competing substrate, gapped calf thymus DNA, read-out: IC50 (converted)", "result": 3.92, "unit": "µM"},
      {"measurement": "IC50", "setting": "HSV DNA polymerase; [3H]dGTP as competing substrate, gapped calf thymus DNA, read-out: IC50 (converted)", "result": 3.46, "unit": "µM"},
      {"measurement": "IC50", "setting": "HSV DNA polymerase; [3H]dTTP as competing substrate, gapped calf thymus DNA, read-out: IC50 (converted)", "result": 4.85, "unit": "µM"},
      {"measurement": "IC50", "setting": "HSV DNA polymerase; dCTP, dGTP, dTTP, range, read-out: IC50, incorporation of other [3H]dNTPs", "result": "3.46 to 4.85", "unit": "µM"}
    ]},
    {"compound": "C[C@@H](Cn1cnc2c(N)ncnc21)OCP(=O)(O)OP(=O)(O)OP(=O)(O)O", "note": "[Tenofovir-pp]", "values": [
      {"measurement": "IC50", "setting": "HIV-1 RT; dATP (3.2 µM) as competing substrate", "result": "0.43 ± 0.21", "unit": "µg/mL"},
      {"measurement": "IC50", "setting": "HSV DNA polymerase; [3H]dATP as competing substrate, gapped calf thymus DNA", "result": "0.48 ± 0.04", "unit": "µg/mL"},
      {"measurement": "IC50", "setting": "HSV DNA polymerase; [3H]dCTP as competing substrate, gapped calf thymus DNA", "result": "32 ± 2.2", "unit": "µg/mL"},
      {"measurement": "IC50", "setting": "HSV DNA polymerase; [3H]dGTP as competing substrate, gapped calf thymus DNA", "result": "8.9 ± 6.3", "unit": "µg/mL"},
      {"measurement": "IC50", "setting": "HSV DNA polymerase; [3H]dTTP as competing substrate, gapped calf thymus DNA", "result": "11 ± 4.8", "unit": "µg/mL"},
      {"measurement": "IC50, incorporation of other [3H]dNTPs", "setting": "HSV DNA polymerase; dCTP, dGTP, dTTP, range", "result": "8.9 to 32", "unit": "µg/mL"}
    ]}
  ]
}
